The target in data set [1] is T1, Cyp21 enzyme (Human HEK 293-Cyp21 stable transfected cells) (Homo sapiens, UniProt P08686).
T1 construct: expressed in transfected cells
T1 sequence (P08686 1-495): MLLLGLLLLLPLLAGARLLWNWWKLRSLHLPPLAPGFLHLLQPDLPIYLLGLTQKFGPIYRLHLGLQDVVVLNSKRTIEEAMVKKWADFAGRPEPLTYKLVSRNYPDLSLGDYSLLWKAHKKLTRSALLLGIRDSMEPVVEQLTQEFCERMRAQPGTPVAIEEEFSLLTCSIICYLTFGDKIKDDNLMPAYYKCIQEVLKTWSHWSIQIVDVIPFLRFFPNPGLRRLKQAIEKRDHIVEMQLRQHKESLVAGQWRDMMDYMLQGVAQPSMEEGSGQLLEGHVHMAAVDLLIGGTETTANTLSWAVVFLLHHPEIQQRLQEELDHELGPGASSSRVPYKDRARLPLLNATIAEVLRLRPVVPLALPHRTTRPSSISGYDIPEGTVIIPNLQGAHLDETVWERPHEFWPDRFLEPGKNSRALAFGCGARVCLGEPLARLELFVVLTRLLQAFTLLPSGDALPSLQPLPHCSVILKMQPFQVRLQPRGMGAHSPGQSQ
The data set is described as follows: CYP21-HEK293 enzymatic assay (% inhibition at 100 nM) (Biological Example 10). The class given is cell-based. Conditions: 100 nM compound, HEK 293-Cyp21 cells; read-out: Biological Example No. 10: CYP21-HEK293 percent inhibition at 100 nM. Put shortly:
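HEK293 cells stably expressing human Cyp21 in DMEM + 10% FBS got compound (100 nM reported) for 5 h at 37 °C; 1% methanol served as mock. Progesterone substrate (final 10 μM) was then added for 20 h. DOC in the medium was measured by competitive ELISA (OD 450 nm) against a standard curve.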

The target in data set [2] is T2, CYP17 (human testicular microsome) (Homo sapiens, UniProt P05093).
T2 construct: using microsomal fraction from human testis (Celsis Cat #S00110) as the enzyme source; tissue Celsis S00110; host or cells: human testis microsomal fraction
T2 sequence (P05093 1-508): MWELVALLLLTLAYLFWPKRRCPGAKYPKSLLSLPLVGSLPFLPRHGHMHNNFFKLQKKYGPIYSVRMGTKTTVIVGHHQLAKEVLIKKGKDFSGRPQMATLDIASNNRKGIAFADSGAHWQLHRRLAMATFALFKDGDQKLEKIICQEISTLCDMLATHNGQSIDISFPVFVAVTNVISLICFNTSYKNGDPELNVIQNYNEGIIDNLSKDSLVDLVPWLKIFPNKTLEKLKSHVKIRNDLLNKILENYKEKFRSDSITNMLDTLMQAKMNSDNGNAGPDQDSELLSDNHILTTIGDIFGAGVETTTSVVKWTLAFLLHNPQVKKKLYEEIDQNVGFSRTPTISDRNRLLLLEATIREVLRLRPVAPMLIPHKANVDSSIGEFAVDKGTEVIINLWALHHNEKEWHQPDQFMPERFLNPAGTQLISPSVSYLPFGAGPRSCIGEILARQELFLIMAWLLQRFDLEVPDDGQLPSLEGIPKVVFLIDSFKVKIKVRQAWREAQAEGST
Nature of the data set: CYP17 enzymatic assay (IC50) (Biological Example 4). The class given is biochemical. Conditions: human testicular microsome, DHEA by ELISA; read-out: Biological Example No. 4: CYP17 enzymatic assay IC50. (In general: ELISA stands for enzyme-linked immunosorbent assay.)

Data set [3] has as its target T2, CYP17 (human testicular microsome). Nature of the data set: CYP17 enzymatic assay (% inhibition at 10 nM), version 1 (Biological Example 5). The class given is biochemical. Conditions: 10 nM compound, DHEA by ELISA, read-out: Biological Example No. 5: CYP17 percent inhibition at 10 nM (version 1).
Data set [4] can be described thus: Rat liver microsome stability assay (Biological Example 8a). Conditions: liver microsomes, pH 7.4. (Liver microsomes are a subcellular fraction often used to study metabolism.)
Data set [5] can be described thus: Human liver microsome stability assay (Biological Example 8b). The note with it: liver microsomes, pH 7.4.
Protocol: (§1) The reaction was started with addition of excess NADPH (5 mg/mL, 15 μL in 0.1 M potassium phosphate buffer, 1.0 mM EDTA, pH 7.4), the total volume is 45 μL (compound final concentration was 1 μM). […] 50 μL of the supernatant was transferred from each well into a 96-well sample plate containing 50 μL of ultra-pure water (Millipore) for LC-MS/MS analysis.
In data set [6] the test system is rat Cyp11B enzyme (rat adrenal mitochondria). The data set is described as follows: CYP11B enzymatic assay (% inhibition at 100 nM) (Biological Example 9). Conditions: 100 nM compound, cortisol by ELISA. The format is biochemical. Put shortly:
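Sprague Dawley rat adrenal mitochondria were incubated with compound at 100 nM, 0.5 mM NADPH and 0.1 μM 11-deoxycortisol (pH 7.4 Tris buffer) for 60 min at 37 °C. Cortisol was measured by ELISA and corrected by subtracting the no-NADPH background. % inhibition is relative to the no-compound reaction.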

A further data set in a line: in vitro. Conditions: human, microsomes, pH 7.4.
The target of data set [7] is T2, CYP17 (human testicular microsome). The data set is described as follows: CYP17 enzymatic assay (% inhibition at 1 nM) (Biological Example 12). The class given is biochemical.
Where [8] appears, read: compound at 1 nM, read-out: CYP17 enzymatic assay % inhibition at 1 nM (Biological Example No. 12).

Like-named read-outs stand apart in the source and are kept apart here.

Protocol for in vitro: as §1

Consider `Cc1cncc(C2=CC[C@H]3[C@@H]4CCC5=CC(=O)NCC[C@]5(C)[C@H]4CC[C@]23C)c1` [Compound 51], for which the inhibition at 0.1 µM in data set [1] was no less than 30%. Moreover, in data set [2], the concentration for half-maximal inhibition (IC50) is less than 11 nM. The inhibition at 0.01 µM in data set [3] is 50 to 80%. The half-life at 1 μM in data set [4] lay in the range of 10 to 60 min.
On to `C[C@]12CCNC(=O)C=C1CC[C@@H]1[C@@H]2CC[C@]2(C)C(n3ccnn3)=CC[C@@H]12` [Compound 59], for which the inhibition at 0.1 µM in data set [1] is less than 30%. The half-life at 1 μM was greater than 50 min in data set [5] and 1 to 10 min in data set [4]. Besides, the “Biological Example No. 9: CYP11B percent inhibition at 100 nM” value in data set [6] is on record as “na (“na” means the compound was not active under the conditions tested)”. Also, the inhibition at 0.01 µM in data set [3] was greater than 80%.
On to `C[C@]12CCNC(=O)C=C1CC[C@@H]1[C@@H]2CC[C@]2(C)C(c3cncnc3)=CC[C@@H]12` [Compound 60, (5aR,7aS)-5a,7a-dimethyl-8-(pyrimidin-5-yl)-4,5,5a,5b,6,7,7a,10,10a,10b,11,12-dodecahydrocyclopenta[5,6]naphtho[2,1-c]azepin-3(2H)-one], for which, in data set [1], the inhibition at 0.1 µM is no less than 30%. Further, the inhibition at 0.01 µM in data set [3] was 50 to 80%. For the same compound, the half-life at 1 μM in data set [4] was 1 to 10 min.
The like results for `C[C@]12CCNC(=O)C=C1CC[C@@H]1[C@@H]2CC[C@]2(C)C(c3cnccn3)=CC[C@@H]12` [Compound 61, (5aR,7aS)-5a,7a-dimethyl-8-(pyrazin-2-yl)-4,5,5a,5b,6,7,7a,10,10a,10b,11,12-dodecahydrocyclopenta[5,6]naphtho[2,1-c]azepin-3(2H)-one] were, in that order, no less than 30%, greater than 80% and 1 to 10 min.
As for `C[C@]12CC[C@H]3[C@@H](CCC4=CC(=O)CC[C@@]43C)C1=CC=C2n1ccnc1` [Compound 75, (10R,13S)-17-(1H-imidazol-1-yl)-10,13-dimethyl-6,7,8,9,10,11,12,13-octahydro-1H-cyclopenta[a]phenanthren-3(2H)-one], the inhibition at 0.1 µM in data set [1] is less than 30%. The half-life at 1 μM in data set [5] was greater than 50 min; in data set [4] it was 10 to 60 min. Besides, in data set [2], the 50% inhibitory concentration (IC50) is less than 11 nM. For the same compound, the “Biological Example No. 9: CYP11B percent inhibition at 100 nM” value in data set [6] is reported as “U (U means the compound had a percent inhibition of greater than or equal to 32%)”. Also, in data set [3], the inhibition at 0.01 µM is greater than 80%.
As to `COc1cncc(C2=CC=C3[C@@H]4CCC5=CC(=O)CC[C@]5(C)[C@H]4CC[C@]23C)c1` [Compound 83, (10R,13S)-17-(5-methoxypyridin-3-yl)-10,13-dimethyl-6,7,8,9,10,11,12,13-octahydro-1H-cyclopenta[a]phenanthren-3(2H)-one], the inhibition at 0.1 µM in data set [1] is no less than 30%. Also, the half-life at 1 μM in “in vitro” was in the range of 1 to 50 min. Besides, in data set [3], the inhibition at 0.01 µM was 50 to 80%.
Take `CN1CC[C@@]2(C)C(=CC1=O)CC[C@@H]1[C@@H]2CC[C@]2(C)C(n3ccnc3)=CC[C@@H]12` [Compound 146]: the inhibition at 0.1 µM in data set [1] is less than 30%. Further, the figures for the half-life at 1 μM in data set [5] and in data set [4] were 1 to 50 min and 10 to 60 min, respectively. The IC50 in data set [2] was less than 11 nM. In data set [6], the “Biological Example No. 9: CYP11B percent inhibition at 100 nM” value is “U (U means the compound had a percent inhibition of greater than or equal to 32%)”. Besides, the inhibition at 0.01 µM in data set [3] is greater than 80%.
For `C[C@]12CC[C@H]3[C@@H](CC[C@H]4CC(=O)NCC[C@@]43C)C1=CC=C2c1cccnc1` [Compound 165, (5aS,5bS,7aS,10bR,12aS)-5a,7a-dimethyl-8-(pyridin-3-yl)-3,4,5,5a,5b,6,7,7a,10b,11,12,12a-dodecahydrocyclopenta[5,6]naphtho[1,2-d]azepin-2(1H)-one], the inhibition at 0.1 µM in data set [1] is less than 30%. The half-life at 1 μM in data set [5] was 1 to 50 min; in data set [4], 1 to 10 min. Besides, in data set [2], the IC50 was less than 11 nM. Also, the “Biological Example No. 9: CYP11B percent inhibition at 100 nM” value in data set [6] is “na (“na” means the compound was not active under the conditions tested)”. Moreover, the inhibition at 0.01 µM in data set [3] is greater than 80%.
`COC(=O)N[C@@H]1CC[C@@]2(C)C(CCC3C2CC[C@]2(C)C(c4cccnc4)=CCC32)C1` (stereo partly drawn) [Compound 219, methyl ((3R,10S,13S)-10,13-dimethyl-17-(pyridin-3-yl)-2,3,4,5,6,7,8,9,10,11,12,13,14,15-tetradecahydro-1H-cyclopenta[a]phenanthren-3-yl)carbamate] showed a half-life at 1 μM in the data set “in vitro” of 1 to 50 min. In addition, in data set [7] (setting [8]), the inhibition at 0.001 µM was greater than 50%.
The compound `COc1cncc(C2=CCC3C4CCC5C[C@H](NC(C)=O)CC[C@]5(C)C4CC[C@]23C)c1` (stereo partly drawn) [Compound 222, N-((3R,10S,13S)-17-(5-methoxypyridin-3-yl)-10,13-dimethyl-2,3,4,5,6,7,8,9,10,11,12,13,14,15-tetradecahydro-1H-cyclopenta[a]phenanthren-3-yl)acetamide] displayed a half-life at 1 μM in “in vitro” of 1 to 50 min. Further, the inhibition at 0.001 µM in data set [7] (setting [8]) is greater than 50%.
The matching figures for `CC(=O)N[C@@H]1CC[C@@]2(C)C(=CC[C@@H]3[C@@H]2CC[C@]2(C)C(c4cncc(C(F)(F)F)c4)=CC[C@@H]32)C1` [Compound 231, N-((3R,10R,13S)-10,13-dimethyl-17-(5-(trifluoromethyl)pyridin-3-yl)-2,3,4,7,8,9,10,11,12,13,14,15-dodecahydro-1H-cyclopenta[a]phenanthren-3-yl)acetamide]: 1 to 50 min and 10 to 50%.
The like results for `CCNC(=O)N[C@@H]1CC[C@@]2(C)C(=CC[C@@H]3[C@@H]2CC[C@]2(C)C(c4cccnc4)=CC[C@@H]32)C1` [Compound 232, 1-((3R,10R,13S)-10,13-dimethyl-17-(pyridin-3-yl)-2,3,4,7,8,9,10,11,12,13,14,15-dodecahydro-1H-cyclopenta[a]phenanthren-3-yl)-3-ethylurea] were, in that order, 1 to 50 min and greater than 50%.
`CC(=O)N[C@@H]1CC[C@@]2(C)C(CC[C@H]3C4=CC=C(c5cccnc5)[C@@]4(C)CC[C@@H]32)C1` (stereo partly drawn) [Compound 244, N-((3R,10S,13S)-10,13-dimethyl-17-(pyridin-3-yl)-2,3,4,5,6,7,8,9,10,11,12,13-dodecahydro-1H-cyclopenta[a]phenanthren-3-yl)acetamide] registered a half-life at 1 μM in the data set “in vitro” of 1 to 50 min. For the same compound, the inhibition at 0.001 µM in data set [7] (setting [8]) was greater than 50%.
The compound `C[C@@]1(O)CC[C@@]2(C)C(=CCC3C2CC[C@]2(C)C(c4cncc(F)c4)=CCC32)C1` (stereo partly drawn) [Compound 269, (3R,10R,13S)-17-(5-fluoropyridin-3-yl)-3,10,13-trimethyl-2,3,4,7,8,9,10,11,12,13,14,15-dodecahydro-1H-cyclopenta[a]phenanthren-3-ol] had a half-life at 1 μM in “in vitro” greater than 50 min. In data set [7] (test compound at 1 nM, read-out: CYP17 enzymatic assay percent inhibition at 1 nM (Biological Example No. 12)), the inhibition at 0.001 µM is greater than 50%.

By inhibition is commonly meant the percentage by which the read-out fell short of the control. Broadly, the IC50 is the midpoint of a concentration-inhibition curve. What is called half-life is the time in which the quantity being followed falls by half. A high value points to slow decline.

(Values after patent US20130252930A1 (BIOMARIN PHARMACEUTICAL INC., priority 2010, published 2013).)
